The target in series [1] is T1, Cholesteryl ester transfer protein (Homo sapiens, UniProt P11597).
T1 sequence (P11597 whole entry): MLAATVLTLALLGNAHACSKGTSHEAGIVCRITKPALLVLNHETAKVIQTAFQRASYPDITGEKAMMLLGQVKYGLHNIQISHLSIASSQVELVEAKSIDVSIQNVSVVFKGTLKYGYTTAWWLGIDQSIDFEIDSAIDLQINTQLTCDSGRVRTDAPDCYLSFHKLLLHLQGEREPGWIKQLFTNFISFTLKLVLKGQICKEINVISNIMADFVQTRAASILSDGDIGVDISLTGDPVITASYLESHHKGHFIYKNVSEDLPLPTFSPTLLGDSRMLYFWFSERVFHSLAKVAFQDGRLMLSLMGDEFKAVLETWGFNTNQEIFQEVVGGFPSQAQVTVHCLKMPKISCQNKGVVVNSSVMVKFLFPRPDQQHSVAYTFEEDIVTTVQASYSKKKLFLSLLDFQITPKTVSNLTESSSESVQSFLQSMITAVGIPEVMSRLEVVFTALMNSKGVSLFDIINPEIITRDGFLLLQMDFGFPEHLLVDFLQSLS
The series can be described thus: Inhibition of CETP assessed as cholesteryl ester transfer activity.

Series [2] can be described thus: Oral bioavailability in mouse. Format: ADME, organism-based. The settings on record: in vivo.
The nature of series [3]: Clearance in mouse. Format: ADME, organism-based. The settings on record: in vivo.
Series [4] can be described thus: Half life in mouse. The series is classed as ADME, organism-based. The settings on record: in vivo.

In general, IC50 refers to the point on the concentration scale where inhibition reaches its midpoint. As usually defined, the bioavailability is the share of a dose that reaches the circulation, judged against a reference dose that is usually intravenous. Low values mean poor availability, high ones good availability. One may read the clearance as the rate of elimination divided by the concentration. Low readings indicate inefficient removal, high ones efficient removal. As a reminder, the half-life is the time needed for the level to fall by half in the phase considered. Low values mean fast loss, high ones slow loss.

With `Cc1ccccc1OCC(=O)Nc1ccc(-c2nc3cc(C#N)ccc3o2)cc1`, the half-maximal inhibitory concentration (IC50) in series [1] was found to be 130 nM. The same measure, in the same setting: for `Cc1ccccc1OCC(=O)Nc1ccc(-c2nc3cc(Cl)ccc3o2)cc1` the value was 1110 nM; for `COc1ccc(OCC(=O)Nc2ccc(-c3nc4cc(Cl)ccc4o3)cc2)cc1`, 4570 nM; for `O=C(Nc1ccc(-c2nc3cc(Cl)ccc3o2)cc1)OCc1ccccc1`, greater than 30000 nM. Consider `N#Cc1ccc2oc(-c3ccc(NC(=O)COC(C(F)(F)F)C(F)(F)F)cc3)nc2c1`, for which the IC50 in series [1] worked out at 94 nM. In addition, the bioavailability in series [2] stood at 4%. Turning to `CC(C)(OCC(=O)Nc1ccc(-c2nc3cc(C#N)ccc3o2)cc1)C(F)(F)F`, the IC50 in series [1] was 51 nM.

With `N#Cc1ccc2oc(-c3ccc(NC(=O)COC(C(F)(F)F)(C(F)(F)F)C(F)(F)F)cc3)nc2c1`, the IC50 in series [1] came out at 151 nM.

Consider `O=C(COc1ccccc1)Nc1ccc(-c2nc3cc(Cl)ccc3o2)cc1`, for which the IC50 in series [1] came out at 4230 nM. Still for that read-out and setting: the same measure for `CC(C)(C)OCC(=O)Nc1ccc(-c2nc3cc(C#N)ccc3o2)cc1`: 132 nM; for `COc1cccc(OCC(=O)Nc2ccc(-c3nc4cc(Cl)ccc4o3)cc2)c1`: 12900 nM. Still for that read-out and setting: the same measure for `O=C(COc1cccc([N+](=O)[O-])c1)Nc1ccc(-c2nc3cc(Cl)ccc3o2)cc1`: 26500 nM; for `Cc1ccc(OCC(=O)Nc2ccc(-c3nc4cc(Cl)ccc4o3)cc2)cc1`: greater than 30000 nM; for `O=C(COc1ccc([N+](=O)[O-])cc1)Nc1ccc(-c2nc3cc(Cl)ccc3o2)cc1`: 2210 nM.

On to `O=C(CNc1ccccc1)Nc1ccc(-c2nc3cc(Cl)ccc3o2)cc1`, for which the IC50 in series [1] is 8130 nM. Still for that read-out and setting: for `CC(OCC(=O)Nc1ccc(-c2nc3cc(C#N)ccc3o2)cc1)(C(F)(F)F)C(F)(F)F` the value was 44 nM; for `CCc1ccccc1OCC(=O)Nc1ccc(-c2nc3cc(Cl)ccc3o2)cc1`, 2590 nM. On the same count and under the same terms, the same measure for `Cc1ccccc1OCC(=O)N(C)c1ccc(-c2nc3cc(Cl)ccc3o2)cc1`: greater than 30000 nM; for `CC(Oc1ccccc1)C(=O)Nc1ccc(-c2nc3cc(Cl)ccc3o2)cc1` (stereo not drawn): greater than 30000 nM; for `N#Cc1cccc(OCC(=O)Nc2ccc(-c3nc4cc(Cl)ccc4o3)cc2)c1`: greater than 30000 nM. Same read-out and setting: for `CCCc1ccccc1OCC(=O)Nc1ccc(-c2nc3cc(Cl)ccc3o2)cc1` the value was 2700 nM.

`O=C(COc1ccccc1C(F)(F)F)Nc1ccc(-c2nc3cc(Cl)ccc3o2)cc1`: the IC50 in series [1] turned out to be 6390 nM. Still for that read-out and setting: for `O=C(COc1ccccc1Cl)Nc1ccc(-c2nc3cc(Cl)ccc3o2)cc1` the value was 2150 nM.

Regarding `O=C(COc1cccc(F)c1)Nc1ccc(-c2nc3cc(Cl)ccc3o2)cc1`, the half-inhibitory concentration (IC50) in series [1] came out at 1990 nM. On the same count and under the same terms, the same measure for `N#Cc1ccc(OCC(=O)Nc2ccc(-c3nc4cc(Cl)ccc4o3)cc2)cc1`: greater than 30000 nM. Same read-out and setting: the same measure for `O=C(COc1ccc(F)cc1)Nc1ccc(-c2nc3cc(Cl)ccc3o2)cc1`: 1770 nM; for `O=C(CSc1ccccc1)Nc1ccc(-c2nc3cc(Cl)ccc3o2)cc1`: greater than 30000 nM.

For the molecule `O=C(COc1ccc(Cl)cc1)Nc1ccc(-c2nc3cc(Cl)ccc3o2)cc1`, the concentration for half-maximal inhibition (IC50) in series [1] was 6810 nM. Same read-out and setting: for `O=C(COc1cccc(Cl)c1)Nc1ccc(-c2nc3cc(Cl)ccc3o2)cc1` the value was 1250 nM; for `O=C(NCc1ccccc1)Nc1ccc(-c2nc3cc(Cl)ccc3o2)cc1`, greater than 30000 nM; for `N#Cc1ccc2oc(-c3ccc(NC(=O)COCc4ccccc4C(F)(F)F)cc3)nc2c1`, 505 nM. On the same count and under the same terms, for `CCOCC(=O)Nc1ccc(-c2nc3cc(C#N)ccc3o2)cc1` the value was 1380 nM; for `CC(C)OCC(=O)Nc1ccc(-c2nc3cc(C#N)ccc3o2)cc1`, 613 nM. Regarding `O=C(COc1cccc(C(F)(F)F)c1)Nc1ccc(-c2nc3cc(Cl)ccc3o2)cc1`, in series [1], the IC50 was 1770 nM. On the same count and under the same terms, for `O=C(COCc1ccccc1)Nc1ccc(-c2nc3cc(Cl)ccc3o2)cc1` the value was 6540 nM.

As to `O=C(CNCc1ccccc1)Nc1ccc(-c2nc3cc(Cl)ccc3o2)cc1`, in series [1], the IC50 came out at 18100 nM.

As for `N#Cc1ccccc1OCC(=O)Nc1ccc(-c2nc3cc(Cl)ccc3o2)cc1`, the IC50 in series [1] was greater than 30000 nM. In the case of `O=C(COc1ccccc1F)Nc1ccc(-c2nc3cc(Cl)ccc3o2)cc1`, the IC50 in series [1] was greater than 30000 nM. The same measure, in the same setting: the same measure for `COc1ccccc1OCC(=O)Nc1ccc(-c2nc3cc(Cl)ccc3o2)cc1`: greater than 30000 nM; for `c1ccc(OCCNc2ccc(-c3nc4ccccc4o3)cc2)cc1`: 75900 nM. As for `CC(C)OCCNc1ccc(-c2nc3cc(C#N)ccc3o2)cc1`, in series [1], the IC50 was 890 nM. Further, in series [2], the bioavailability was determined as 30%. For `CC(OCCNc1ccc(-c2nc3cc(C#N)ccc3o2)cc1)(C(F)(F)F)C(F)(F)F`, in series [1], the IC50 stood at 151 nM. In series [2], this molecule came in with a bioavailability of 20%. In series [3], the clearance came to 31 mL/min/kg. The same molecule had a half-life in series [4] of 438 min. Turning to `O=C(COc1ccccc1[N+](=O)[O-])Nc1ccc(-c2nc3cc(Cl)ccc3o2)cc1`, the half-maximal inhibitory concentration (IC50) in series [1] is 4400 nM.

`O=C(COc1ccc(C(F)(F)F)cc1)Nc1ccc(-c2nc3cc(Cl)ccc3o2)cc1`: the IC50 in series [1] stood at 810 nM. On the same count and under the same terms, for `Cc1ccccc1CNC(=O)c1ccc(-c2nc3cc(Cl)ccc3o2)cc1` the value was greater than 30000 nM; for `Cc1ccccc1COCC(=O)Nc1ccc(-c2nc3cc(C#N)ccc3o2)cc1`, 1180 nM. Same read-out and setting: for `O=S(=O)(Cc1ccccc1)Nc1ccc(-c2nc3cc(Cl)ccc3o2)cc1` the value was greater than 30000 nM; for `Cc1cccc(OCC(=O)Nc2ccc(-c3nc4cc(Cl)ccc4o3)cc2)c1`, 19300 nM; for `O=C(CCc1ccccc1)Nc1ccc(-c2nc3cc(Cl)ccc3o2)cc1`, greater than 30000 nM.

Values taken from ChEMBL document CHEMBL1159050, “2-Arylbenzoxazoles as CETP inhibitors: substitution and modification of the alpha-alkoxyamide moiety” (Bioorg Med Chem Lett, 2010).
